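How tested: cells in 96-well plates exposed to compound for 48 hours at five concentrations. Abbreviation: GI50, concentration required for 50% inhibition of growth. At the TGI there is no net growth.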
Each compound was assayed on CCRF-CEM leukemia (assay: DTP human tumour cell line panel, 48 h).

SMILES	TGI	GI50
Cc1ccc(N2C(=O)N(c3ccc(C)cc3)C3(SC=NN3C)C2=O)cc1 (stereo unspecified)	> 100 µM	–
O=C1c2ccc3c4ccccc4n(-c4ccccc4)c3c2C(=O)N1c1ccc(Cl)cc1	> 100 µM	–
Cc1ccc2c(c1-c1ccccc1)C(=O)OC2	> 100 µM	–
NC(CCc1ncc(C(=O)O)s1)C(=O)O (stereo unspecified)	> 100 µM	–
CSc1ccc2c(cc1=O)[C@@H](NC(=O)c1cc(O)c(O)c(O)c1)CCc1cc(O)c(O)c(O)c1-2	18.1 µM	–
COC(=O)C(=O)CC(=O)c1cccc(OC)c1	> 100 µM	–
COc1cc(-c2nnc3n2NC=C(C(=O)O)S3)cc(OC)c1OC	> 67.5 µM	–
Cn1cc(S(=O)(=O)N2CCC3=Cc4c(cnn4-c4ccc(F)cc4)C[C@]3(C(=O)c3cc(C(F)(F)F)ccn3)C2)cn1	> 100 µM	> 100 µM
C[P+](C)(C)c1ccccc1	> 100 µM	–
O=C1c2ccccc2C(=O)N1C/C=N/NS(=O)(=O)c1ccc(Br)cc1	> 100 µM	–
COc1cc(/C=C/C(=O)Oc2ccccc2)ccc1C(=O)O/C=C/c1ccccc1	> 100 µM	–
CC(Cl)CN1c2ccccc2Sc2ccc(Cl)cc21 (stereo unspecified)	> 10 µM	–
NC(=O)c1cn(Cc2ccccc2)c(=O)n1Cc1ccccc1	> 100 µM	–
CCOC(=O)C(C)(c1c(C)[nH]c2ccccc12)c1c(C)[nH]c2ccccc12	58 µM	–
Cc1c(Cl)cccc1NC(=O)c1cccc([N+](=O)[O-])c1O	34.7 µM	–
CC1COS(=O)O1 (stereo unspecified)	> 100 µM	–
CC1CCC(C(C)(C)c2ccccc2)C(=O)C1 (stereo unspecified)	> 100 µM	–
O=C1CC2CCN(C(=O)c3ccccc3)CC2CCN1 (stereo unspecified)	> 100 µM	–
N#CC(C#N)=C1CCCOc2c1ccc1ccccc21	63.7 µM	23 µM
O=C1C=CC(=CC=C2C=CN(CCCCCCCCCCC(=O)NCCCCCCCCCCCC(=O)O)C=C2)C=C1	> 100 µM	–

SMILES	TGI	GI50
COc1cc2c3c(n(CCCN(C)CCO)c(=O)c2cc1OC)-c1cc2c(cc1C3=O)OCO2	0.473 µM	–
N#Cc1c(-c2ccco2)cc(-c2ccc(N)cc2)[nH]c1=O	> 100 µM	–
CNC(C)[C@H]1CCC2C3CC=C4C(=O)[C@@H](NC(=O)C=C(C)C)CC[C@]4(C)C3CC[C@@]21C (stereo partly specified)	7.8 µM	1.77 µM
C=CCC1(C)CCCCC1(O)CS(=O)c1ccccc1 (stereo unspecified)	> 100 µM	–
C1COCCSC2=C(SCCO1)SC(=C1SC3=C(SCCOCCOCCS3)S1)S2	> 100 µM	–
COc1cc(C(=O)O[C@H](C(N)=O)[C@]2(C)CO2)c2cccc(C)c2c1	5.94 µM	–
COc1cc(/C=N\O[Si](C)(C)C(C)(C)C)ccc1O[Si](C)(C)C(C)(C)C	> 100 µM	–
CC12CCC(=O)N1c1cccnc1N2 (stereo unspecified)	> 100 µM	–
COc1cc2c(cc1OC)C1Cc3cc(OC)c(OC)cc3N1CC2 (stereo unspecified)	> 100 µM	–
NCCCOc1cc(Cl)ccc1NC(=O)c1cc2ccccc2cc1OCCCN	2.54 µM	0.469 µM
C=C1C(=O)OC2C1CC(OC(C)=O)/C(C)=C/CCC1(C)OC21 (stereo unspecified)	> 100 µM	–
COc1cc(/C=C/C(=O)C(C(=O)/C=C/c2ccc(OC(=O)CCNC34CC5CC(CC(C5)C3)C4)c(OC)c2)C(=O)CCNC23CC4CC(CC(C4)C2)C3)ccc1OC(=O)CCNC12CC3CC(CC(C3)C1)C2 (stereo unspecified)	4.12 µM	1.65 µM
O=C1C2[C@@H](C(=O)N1c1ccc(Br)cc1)C13C(=CC2([N+](=O)[O-])[C@@H]2C(=O)N(c4ccc(Br)cc4)C(=O)[C@@H]21)c1ccccc1N3c1ccccc1 (stereo partly specified)	> 100 µM	–
O=C1/C(=C/N2N=C(c3ccc4ccccc4c3)CC2c2ccccc2O)SC(=S)N1c1cccnc1 (stereo unspecified)	> 100 µM	0.625 µM
CCOC(=O)C1=C(Nc2ccc(Br)cc2)OCC1=O	> 100 µM	–
CCOc1ccc(N=Cc2c3ccccc3nc3ccccc23)cc1	24 µM	–
Nc1ccc(C2=N/C(=C\c3cccc(N)c3)C(=O)O2)cc1	> 100 µM	–
NCCN.O=C([O-])[O-].O=C([O-])[O-].[Co+3].[K+]	> 100 µM	> 100 µM
C1=NC(N(Cc2ccccc2)Cc2ccccc2)N(Cc2ccccc2)N1 (stereo unspecified)	> 100 µM	–
NC(=O)CNc1ccc([As]=[As]c2ccc(NCC(N)=O)cc2)cc1 (stereo unspecified)	73.6 µM	0.706 µM

The compounds below were run on RPMI-8226 leukemia (assay: DTP human tumour cell line panel, 48 h).

SMILES	TGI	GI50
CCc1cccc(C)c1NC(=O)CC1C(=O)Nc2ccccc2S1=O (stereo unspecified)	> 100 µM	–
Cc1ccc(N2C(=O)N(c3ccc(C)cc3)C3(SC=NN3C)C2=O)cc1 (stereo unspecified)	> 100 µM	–
Cc1ccc2c(c1-c1ccccc1)C(=O)OC2	> 100 µM	–
CCC[CH2][Sn]1([CH2]CCC)[O]CC(COc2c(Cl)cc(Cl)cc2Cl)[O]1 (stereo unspecified)	3.72 µM	0.78 µM
NC(CCc1ncc(C(=O)O)s1)C(=O)O (stereo unspecified)	> 100 µM	–
COC(=O)C(=O)CC(=O)c1cccc(OC)c1	> 100 µM	–
COc1cc(-c2nnc3n2NC=C(C(=O)O)S3)cc(OC)c1OC	> 68.7 µM	–
Cn1cc(S(=O)(=O)N2CCC3=Cc4c(cnn4-c4ccc(F)cc4)C[C@]3(C(=O)c3cc(C(F)(F)F)ccn3)C2)cn1	> 100 µM	93.7 µM
C[P+](C)(C)c1ccccc1	> 100 µM	–
O=C1c2ccccc2C(=O)N1C/C=N/NS(=O)(=O)c1ccc(Br)cc1	> 100 µM	–
COc1cc(/C=C/C(=O)Oc2ccccc2)ccc1C(=O)O/C=C/c1ccccc1	> 100 µM	–
CC(Cl)CN1c2ccccc2Sc2ccc(Cl)cc21 (stereo unspecified)	> 10 µM	–
NC(=O)c1cn(Cc2ccccc2)c(=O)n1Cc1ccccc1	> 100 µM	–
CCOC(=O)C(C)(c1c(C)[nH]c2ccccc12)c1c(C)[nH]c2ccccc12	46.2 µM	–
Cc1c(Cl)cccc1NC(=O)c1cccc([N+](=O)[O-])c1O	> 60 µM	–
CC1COS(=O)O1 (stereo unspecified)	> 100 µM	–
CC1CCC(C(C)(C)c2ccccc2)C(=O)C1 (stereo unspecified)	> 100 µM	–
O=C1CC2CCN(C(=O)c3ccccc3)CC2CCN1 (stereo unspecified)	> 100 µM	–

SMILES	TGI	GI50
N#CC(C#N)=C1CCCOc2c1ccc1ccccc21	65.1 µM	24.5 µM
O=C1C=CC(=CC=C2C=CN(CCCCCCCCCCC(=O)NCCCCCCCCCCCC(=O)O)C=C2)C=C1	> 100 µM	–
COc1cc2c3c(n(CCCN(C)CCO)c(=O)c2cc1OC)-c1cc2c(cc1C3=O)OCO2	8.94 µM	1.45 µM
N#Cc1c(-c2ccco2)cc(-c2ccc(N)cc2)[nH]c1=O	> 100 µM	–
CNC(C)[C@H]1CCC2C3CC=C4C(=O)[C@@H](NC(=O)C=C(C)C)CC[C@]4(C)C3CC[C@@]21C (stereo partly specified)	5.27 µM	1.13 µM
C=CCC1(C)CCCCC1(O)CS(=O)c1ccccc1 (stereo unspecified)	> 100 µM	–
COc1cc(/C=N\O[Si](C)(C)C(C)(C)C)ccc1O[Si](C)(C)C(C)(C)C	> 100 µM	–
CC12CCC(=O)N1c1cccnc1N2 (stereo unspecified)	> 100 µM	–
COc1cc2c(cc1OC)C1Cc3cc(OC)c(OC)cc3N1CC2 (stereo unspecified)	88 µM	–
C=C1C(=O)OC2C1CC(OC(C)=O)/C(C)=C/CCC1(C)OC21 (stereo unspecified)	> 100 µM	–
COc1cc(/C=C/C(=O)C(C(=O)/C=C/c2ccc(OC(=O)CCNC34CC5CC(CC(C5)C3)C4)c(OC)c2)C(=O)CCNC23CC4CC(CC(C4)C2)C3)ccc1OC(=O)CCNC12CC3CC(CC(C3)C1)C2 (stereo unspecified)	5.02 µM	2.12 µM
O=C1C2[C@@H](C(=O)N1c1ccc(Br)cc1)C13C(=CC2([N+](=O)[O-])[C@@H]2C(=O)N(c4ccc(Br)cc4)C(=O)[C@@H]21)c1ccccc1N3c1ccccc1 (stereo partly specified)	> 100 µM	–
O=C1/C(=C/N2N=C(c3ccc4ccccc4c3)CC2c2ccccc2O)SC(=S)N1c1cccnc1 (stereo unspecified)	> 100 µM	0.391 µM
CCOc1ccc(N=Cc2c3ccccc3nc3ccccc23)cc1	> 100 µM	–
CC(=O)[CH-]C(=O)c1ccccc1.CC(=O)[CH-]C(=O)c1ccccc1.O=S(=O)([O-])c1cc([O-])c2c([O-])cc(S(=O)(=O)[O-])cc2c1.[Na+].[Ti+4]	> 100 µM	> 100 µM
NCCN.O=C([O-])[O-].O=C([O-])[O-].[Co+3].[K+]	> 100 µM	> 100 µM
C1=NC(N(Cc2ccccc2)Cc2ccccc2)N(Cc2ccccc2)N1 (stereo unspecified)	32.9 µM	–
NC(=O)CNc1ccc([As]=[As]c2ccc(NCC(N)=O)cc2)cc1 (stereo unspecified)	10.8 µM	2.61 µM

The compounds below were run on K-562 leukemia (assay: DTP human tumour cell line panel, 48 h).

SMILES	TGI
CCc1cccc(C)c1NC(=O)CC1C(=O)Nc2ccccc2S1=O (stereo unspecified)	> 100 µM
Cc1ccc(N2C(=O)N(c3ccc(C)cc3)C3(SC=NN3C)C2=O)cc1 (stereo unspecified)	> 100 µM
O=C1c2ccc3c4ccccc4n(-c4ccccc4)c3c2C(=O)N1c1ccc(Cl)cc1	> 100 µM
Cc1ccc2c(c1-c1ccccc1)C(=O)OC2	> 100 µM
NC(CCc1ncc(C(=O)O)s1)C(=O)O (stereo unspecified)	> 100 µM
CSc1ccc2c(cc1=O)[C@@H](NC(=O)c1cc(O)c(O)c(O)c1)CCc1cc(O)c(O)c(O)c1-2	18.9 µM
COC(=O)C(=O)CC(=O)c1cccc(OC)c1	> 100 µM
